In patent US10081631B2, “2-(1H-indazol-3-yl)-1H-imidazo[4,5-C]pyridine and therapeutic uses thereof” (Samumed, LLC, priority 2014, dated 2018):

How the values were obtained:
[1] = tested on: Wnt activity (Sp5-Luc reporter, SW480 colon carcinoma cells); assay: Screening assay for Wnt activity: Sp5-Luc reporter gene assay in SW480 cells; type: cell-based; conditions: Homo sapiens, 42 h incubation, luminescence
Description: The screening assay for Wnt activity is described as follows. Reporter cell lines can be generated by stably transducing cancer cell lines (e.g., colon cancer) or primary cells (e.g., IEC-6 intestinal cells) with a lentiviral construct that includes a Wnt-responsive promoter driving expression of the firefly luciferase gene.
SW480 colon carcinoma cells were transduced with a lentiviral vector expressing luciferase with a human Sp5 promoter consisting of a sequence of eight TCF/LEF binding sites. SW480 cells stably expressing the Sp5-Luc reporter gene and a hygromycin resistance gene were selected by treatment with 150 μg/ml of hygromycin for 7 days. These stably transduced SW480 cells were expanded in cell culture and used for all further screening activities. For Sp5-Luc reporter gene assays, the cells were plated at 10,000 cells/well in 96-well plates with growth medium containing 10% fetal calf serum and incubated overnight at 37° C. and 5% CO2. Each compound was dissolved in DMSO as a 10 mM stock in standard j-vials and used to prepare compound source plates in dose-response format with 3-fold serial dilutions and a 10 mM top concentration. Compound transfer from serially diluted source plates to assay plates containing the cells was accomplished using a pintool (Multimek 96, Beckman equipped with V&P Scientific FP1S50H pins) based liquid handling protocol. This protocol used a slotted pin to transfer 50 nl of compound from a source plate well to an assay plate well containing 50 μl of cells in growth medium. […] Control wells received 50 nl of DMSO treatment for normalization and calculating IC50 values. The treated cells were incubated at 37° C. and 5% CO2 for an additional forty-two hours. Following incubation, the growth medium was removed and 50 μl of BrightGlo luminescence reagent (Promega) was added to each well of the 96-well assay plates. The plates were placed on an orbital shaker for 5 min and then luminescence was quantified on the Victor3 (Perkin Elmer) plate reader. Readings were normalized to DMSO only treated cells, and normalized activities were utilized for IC50 calculations using the dose-response log (inhibitor) vs. response-variable slope (four parameters) nonlinear regression feature available in GraphPad Prism 5.0 or 6.0.

[2] = tested on: primary human fibroblasts derived from IPF patients (LL29 cells); assay: Inhibition of fibrosis: TGF-β1-treated primary human fibroblasts from IPF patients (LL29), αSMA staining; type: cell-based; conditions: Fibroblast, 96 h, TGF-β1 20 ng/mL, 4 days, % αSMA-positive cells
Description: The above synthesized compounds were screened using primary human fibroblasts (derived from IPF patients) treated with TGF-β1 to determine their ability to inhibit the fibrotic process.
Primary human fibroblasts derived from IPF patients (LL29 cells) [^1Xiaoqiu Liu, et. al., “Fibrotic Lung Fibroblasts Show Blunted Inhibition by cAMP Due to Deficient cAMP Response Element-Binding Protein Phosphorylation”, Journal of Pharmacology and Experimental Therapeutics (2005), 315(2), 678-687; ^2Watts, K. L., et. al., “RhoA signaling modulates cyclin D1 expression in human lung fibroblasts; implications for idiopathic pulmonary fibrosis”, Respiratory Research (2006), 7(1), 88] were obtained from American Type Culture Collection (ATCC) and expanded in F12 medium supplemented with 15% Fetal Bovine Serum and Penicillin/Streptomycin.
Each compound was dissolved in DMSO as a 10 mM stock and used to prepare compound source plates. Serial dilution (1:2, 11-point dose-response curves from 10 μM to 1.87 nM) and compound transfer was performed using the ECHO 550 (Labcyte, Sunnyvale, Calif.) into 384-well clear bottom assay plates (Greiner Bio-One) with appropriate DMSO backfill for a final DMSO concentration of 0.1%. LL29 cells were plated at 1,500 cells/well in 80 μl/well F12 medium supplemented with 1% Fetal Bovine Serum. One hour after addition of the cells, TGF-β1 (Peprotech; 20 ng/mL) was added to the plates to induce fibrosis (ref 1 and 2 above). Wells treated with TGF-β1 and containing DMSO were used as controls. Cells were incubated at 37° C. and 5% CO2 for 4 days. Following incubation for 4 days, SYTOX green nucleic acid stain (Life Technologies [Thermo Fisher Scientific]) was added to the wells at a final concentration of 1 uM and incubated at room temperature for 30 min. Cells were then fixed using 4% formaldehyde (Electron Microscopy Sciences), washed 3 times with PBS followed by blocking and permeabilization using 3% Bovine Serum Albumin (BSA; Sigma) and 0.3% Triton X-100 (Sigma) in PBS. Cells were then stained with antibody specific to α-smooth muscle actin (αSMA; Abcam) (ref 1 and 2 above) in 3% Bovine Serum Albumin (BSA; Sigma) and 0.3% Triton X-100 (Sigma) in PBS, and incubated overnight at 4° C. Cells were then washed 3 times with PBS, followed by incubation with Alexa Flor-647 conjugated secondary antibody (Life Technologies [Thermo Fisher Scientific]) and DAPI at room temperature for 1 hour. Cells were then washed 3 times with PBS and plates were sealed for imaging. αSMA staining was imaged by excitation at 630 nm and emission at 665 nm and quantified using the Compartmental Analysis program on the CellInsight CX5 (Thermo Scientific). Dead or apoptotic cells were excluded from analysis based on positive SYTOX green staining. % of total cells positive for αSMA were counted in each well and normalized to the average of 11 wells treated with TGF-β1 on the same plate using Dotmatics' Studies Software. The normalized averages (fold change over untreated) of 3 replicate wells for each compound concentration were used to create dose-responses curves and EC50 values were calculated using non-linear regression curve fit in the Dotmatics' Studies Software. The EC50 values are reported.

| SMILES | IC50 [1] [nM] | EC50 [2] [nM] |
| --- | --- | --- |
| CC(C)(C)CC(=O)Nc1cncc(-c2ccc3[nH]nc(-c4nc5c(-c6ccccc6F)nccc5[nH]4)c3c2)c1 [Compound 68, N-(5-(3-(4-(2-Fluorophenyl)-1H-imidazo[4,5-c]pyridin-2-yl)-1H-indazol-5-yl)pyridin-3-yl)-3,3-dimethylbutanamide] | 20 | 9 |
| Fc1ccc(-c2nccc3[nH]c(-c4n[nH]c5ccc(-c6cncnc6)cc45)nc23)cc1 [Compound 52, 4-(4-Fluorophenyl)-2-(5-(pyrimidin-5-yl)-1H-indazol-3-yl)-1H-imidazo[4,5-c]pyridine] | 25 | 539 |
| O=C(Nc1cncc(-c2ccc3[nH]nc(-c4nc5c(-c6ccsc6)nccc5[nH]4)c3c2)c1)c1ccccc1 [Compound 245, N-(5-(3-(4-(Thiophen-3-yl)-1H-imidazo[4,5-c]pyridin-2-yl)-1H-indazol-5-yl)pyridin-3-yl)benzamide] | 40 | 17 |
| CN1CCN(c2nccc3[nH]c(-c4n[nH]c5ccc(-c6cncc(CN7CCCCC7)c6)cc45)nc23)CC1 [Compound 223, 4-(4-Methylpiperazin-1-yl)-2-(5-(5-(piperidin-1-ylmethyl)pyridin-3-yl)-1H-indazol-3-yl)-1H-imidazo[4,5-c]pyridine] | 172 | 1110 |
| O=C(Nc1cncc(-c2ccc3[nH]nc(-c4nc5c(-c6ccc(F)cc6)nccc5[nH]4)c3c2)c1)C1CCC1 [Compound 46, N-(5-(3-(4-(4-Fluorophenyl)-1H-imidazo[4,5-c]pyridin-2-yl)-1H-indazol-5-yl)pyridin-3-yl)cyclobutanecarboxamide] | 10 | 9 |
| CCNCc1cncc(-c2ccc3[nH]nc(-c4nc5c(-c6ccccn6)nccc5[nH]4)c3c2)c1 [Compound 136, N-((5-(3-(4-(Pyridin-2-yl)-1H-imidazo[4,5-c]pyridin-2-yl)-1H-indazol-5-yl)pyridin-3-yl)methyl)ethanamine] | 3060 | 9 |
| CC(C)(C)C(=O)Nc1cncc(-c2ccc3[nH]nc(-c4nc5c(-c6ccc(F)cc6)nccc5[nH]4)c3c2)c1 [Compound 34, N-(5-(3-(4-(4-fluorophenyl)-1H-imidazo[4,5-c]pyridin-2-yl)-1H-indazol-5-yl)pyridin-3-yl)pivalamide] | 13 | 9 |
| CN(C)Cc1cncc(-c2ccc3[nH]nc(-c4nc5c(-c6cccs6)nccc5[nH]4)c3c2)c1 [Compound 299, N,N-Dimethyl-1-(5-(3-(4-(thiophen-2-yl)-1H-imidazo[4,5-c]pyridin-2-yl)-1H-indazol-5-yl)pyridin-3-yl)methanamine] | 332 | 608 |
| O=C(Nc1cncc(-c2ccc3[nH]nc(-c4nc5c(-c6cccc(F)c6)nccc5[nH]4)c3c2)c1)C1CC1 [Compound 19, N-(5-(3-(4-(3-Fluorophenyl)-1H-imidazo[4,5-c]pyridin-2-yl)-1H-indazol-5-yl)pyridin-3-yl)cyclopropanecarboxamide] | 1 | 9 |
| Fc1ccc(-c2nccc3[nH]c(-c4n[nH]c5ccc(-c6cncc(CN7CCCC7)c6)cc45)nc23)cc1 [Compound 40, 4-(4-Fluorophenyl)-2-(5-(5-(pyrrolidin-1-ylmethyl)pyridin-3-yl)-1H-indazol-3-yl)-1H-imidazo[4,5-c]pyridine] | 75 | 24 |
| O=C(Nc1cncc(-c2ccc3[nH]nc(-c4nc5c(-c6cccs6)nccc5[nH]4)c3c2)c1)C1CCCC1 [Compound 307, N-(5-(3-(4-(Thiophen-2-yl)-1H-imidazo[4,5-c]pyridin-2-yl)-1H-indazol-5-yl)pyridin-3-yl)cyclopentanecarboxamide] | 34.8 | 422 |

More lines, main results first:

| IC50 [1] [nM] | SMILES | EC50 [2] [nM] |
| --- | --- | --- |
| 44.7 | CC(C)CC(=O)Nc1cncc(-c2ccc3[nH]nc(-c4nc5c(-c6ccc(F)s6)nccc5[nH]4)c3c2)c1 [Compound 314, N-(5-(3-(4-(5-Fluorothiophen-2-yl)-1H-imidazo[4,5-c]pyridin-2-yl)-1H-indazol-5-yl)pyridin-3-yl)-3-methylbutanamide] | 665 |
| 11 | Cn1cc(-c2ccc3[nH]nc(-c4nc5c(-c6cccc(F)c6)nccc5[nH]4)c3c2)cn1 [Compound 1772, 4-(3-Fluorophenyl)-2-(5-(1-methyl-1H-pyrazol-4-yl)-1H-indazol-3-yl)-1H-imidazo[4,5-c]pyridine] | 9990 |
| 284 | Fc1ccc(-c2nccc3[nH]c(-c4n[nH]c5ccc(-c6cncc(CN7CCCC7)c6)cc45)nc23)s1 [Compound 326, 4-(5-Fluorothiophen-2-yl)-2-(5-(5-(pyrrolidin-1-ylmethyl)pyridin-3-yl)-1H-indazol-3-yl)-1H-imidazo[4,5-c]pyridine] | 940 |
| 85 | Cc1ccncc1-c1ccc2[nH]nc(-c3nc4c(-c5cc(F)cc(CNS(C)(=O)=O)c5)nccc4[nH]3)c2c1 [Compound 395, N-(3-Fluoro-5-(2-(5-(4-methylpyridin-3-yl)-1H-indazol-3-yl)-1H-imidazo [4,5-c]pyridin-4-yl)benzyl)methanesulfonamide] | 26 |
| 5.2 | CC(C)(C)C(=O)Nc1cncc(-c2ccc3[nH]nc(-c4nc5c(-c6ccc(F)s6)nccc5[nH]4)c3c2)c1 [Compound 320, N-(5-(3-(4-(5-Fluorothiophen-2-yl)-1H-imidazo[4,5-c]pyridin-2-yl)-1H-indazol-5-yl)pyridin-3-yl)pivalamide] | 115 |
| 1.3 | Cc1ccc(-c2nccc3[nH]c(-c4n[nH]c5ccc(-c6cncc(N)c6)cc45)nc23)s1 [Compound 341, 5-(3-(4-(5-Methylthiophen-2-yl)-1H-imidazo[4,5-c]pyridin-2-yl)-1H-indazol-5-yl)pyridin-3-amine] | 9 |
| 35 | Fc1cccc(-c2nccc3[nH]c(-c4n[nH]c5ccc(-c6cnccn6)cc45)nc23)c1 [Compound 1786, 4-(3-Fluorophenyl)-2-(5-(pyrazin-2-yl)-1H-indazol-3-yl)-1H-imidazo[4,5-c]pyridine] | 9 |
| 24 | CCCC(=O)Nc1cncc(-c2ccc3[nH]nc(-c4nc5c(-c6cc(F)cc(CNS(C)(=O)=O)c6)nccc5[nH]4)c3c2)c1 [Compound 407, N-(5-(3-(4-(3-Fluoro-5-(methylsulfonamidomethyl)phenyl)-1H-imidazo[4,5-c]pyridin-2-yl)-1H-indazol-5-yl)pyridin-3-yl)butyramide] | 19 |
| 252 | Fc1cccc(-c2nccc3[nH]c(-c4n[nH]c5ccc(-c6cncc(OC7CCCCC7)c6)cc45)nc23)c1 [Compound 1775, 2-(5-(5-(Cyclohexyloxy)pyridin-3-yl)-1H-indazol-3-yl)-4-(3-fluorophenyl)-1H-imidazo[4,5-c]pyridine] | 9 |
